From publication PMC7997032, “Organic synthesis and anti-influenza A virus activity of cyclobakuchiols A, B, C, and D” (PLoS ONE, 2021)
Several values for one entry are separate records, joined by “and”; a condition that tells them apart may be missing. Equal entries are not always repeated.

What was measured:
[1] = system: A/PR/8/34 virus; assay: Influenza A viral growth assay (viral titer of culture media); assay type: cell-based, influenza A H1N1 virus; design: viral titer of culture media, individual replicate / viral titer of culture media, ave: unit not given here; conditions: A/PR/8/34 (PR8), 12.5uM, average of #1-3 exp (n=9)
[2] = system: A/WSN/33 virus; assay: as above; assay type: cell-based, influenza A H1N1 virus; conditions: A/WSN/33 (WSN), 12.5uM, average of #1-3 exp (n=9)
[3] = system: A/PR/8/34 virus; assay: RT-qPCR of viral mRNAs (NP, NS1, PA, PB1, PB2, M2) in infected MDCK cells; assay type: cell-based, influenza A H1N1 virus
[4] = system: A/PR/8/34 virus; assay type: cell-based; conditions: 12.5 μM, 24h WB
[5] = system: canine interferon-β (Ifn-β); assay: RT-qPCR of Ifn-β mRNA in MDCK cells with or without A/PR/8/34 virus; assay type: cell-based; conditions: 12.5uM, relative to virus - DMSO; for MDCK IFN-b mRNA, ave: ave of #1-3 exp; for MDCK IFN-b mRNA, individual replicates: replicates 1-3 of #1, #2, #3 exp, listed as Cyclobakuchiol D
[6] = system: NAD(P)H quinone oxidoreductase 1 (Nqo1); assay: RT-qPCR of Nqo1 mRNA in MDCK cells with or without A/PR/8/34 virus; assay type: cell-based, canine; conditions: 12.5uM, MDCK, relative to virus - DMSO; for NQO1 Canis lupus mRNA, ave: ave of #1-3 exp; for NQO1 Canis lupus mRNA, individual replicates: replicates 1-3 of #1, #2, #3 exp, listed as Cyclobakuchiol D
[7] = system: Nrf2; assay: Nrf2 reporter assay (dual luciferase system) in MDCK cells; assay type: cell-based, canine
[8] = system: A/PR/8/34 virus; assay: Immunofluorescence staining of viral NP in influenza A virus-infected MDCK cells; conditions: for NP/DAPI (%) ave: average of 9 wells
Procedure: MDCK cells were seeded on a 96-well plate at 1 × 10^4 cells/well. […] Each mixture was added to the cells at 37°C in the presence of 5% CO2. […] After influenza A viral infection for 24 h, the cells were fixed with 4% paraformaldehyde in phosphate-buffered saline (PBS) for 30 min at 4°C and subsequently permeabilized by the addition of 0.3% Triton X-100 for 20 min at 25°C. A mouse primary antibody was used to detect the NP of A/PR/8/34 or A/WSN/33 viruses (FluA-NP 4F1; SouthernBiotech, AL, USA). Alexa Fluor488-conjugated goat anti-mouse IgG (H + L) antibody (Thermo Fisher Scientific) was used as the secondary antibody. Cell nuclei were then stained using diamidino-2-phenylindole (DAPI) (Thermo Fisher Scientific). Wells were photographed using a fluorescence microscope (BIOREVO BZ-X700; Keyence, Osaka, Japan). The proportion of influenza A NP-positive cells per DAPI-positive cells was calculated based on measurements recorded using BZ-X Analyzer software (Keyence).

[9] = system: A/WSN/33 virus; assay: as above; conditions: WSN
[10] = MDCK cells, PR8 virus, relative to DMSO (about 1), ave of #1-3 exp (9 values)
[11] = MDCK cells, PR8 virus, relative to DMSO, replicates 1-3 of #1, #2, #3 exp, listed as Cyclobakuchiol D
[12] = single experiment, listed as cyclo D

C=C[C@]1(C)CCC(C(C)(C)O)C(c2ccc(O)cc2)C1 (stereo in doubt) [cyclobakuchiol D]
viral titer of culture media, ave ([1]; 12h): 23333.3
viral titer of culture media, ave ([1]; 24h): 46666.7
viral titer of culture media, ave ([1]; 48h): 42222.2
viral titer of culture media, ave ([1]; 72h): 51111.1
viral titer of culture media, ave ([2]; 12h): 10344.4
viral titer of culture media, ave ([2]; 24h): 25855556
viral titer of culture media, ave ([2]; 48h): 191111111
viral titer of culture media, ave ([2]; 72h): 140200000
PR8 NP gene expression qPCR, ave ([3]; MDCK PR8, NP mRNA, relative (DMSO about 1), average of #1-3 exp (n=9)): 0.07153
PR8 NP gene expression qPCR, individual replicate ([3]; MDCK PR8, NP mRNA, relative (DMSO about 1), replicates of #1-3 exp, listed as Cyclobakuchiol D): 0.03886 and 0.05994 and 0.05606 and 0.05458 and 0.125 and 0.1151 and 0.1425 and 0.0275 and 0.02409
PR8 NS1 gene expression qPCR, ave ([3]; MDCK PR8, NS1 mRNA, relative (DMSO about 1), average of #1-3 exp (n=9)): 0.04518
PR8 NS1 gene expression qPCR, individual replicate ([3]; MDCK PR8, NS1 mRNA, relative (DMSO about 1), replicates of #1-3 exp, listed as Cyclobakuchiol D): 0.02832 and 0.04013 and 0.04518 and 0.04355 and 0.06568 and 0.06468 and 0.07589 and 0.02316 and 0.02
PR8 PA gene expression qPCR, ave ([3]; MDCK PR8, PA mRNA, relative (DMSO about 1), average of #1-3 exp (n=9)): 0.04749
PR8 PA gene expression qPCR, individual replicate ([3]; MDCK PR8, PA mRNA, relative (DMSO about 1), replicates of #1-3 exp, listed as Cyclobakuchiol D): 0.03007 and 0.03859 and 0.03028 and 0.03293 and 0.08115 and 0.07941 and 0.08873 and 0.02395 and 0.02226
PR8 M2 gene expression qPCR, ave [3, 10]: 0.04919
PR8 PB1 gene expression qPCR, ave [3, 10]: 0.04173
PR8 PB2 gene expression qPCR, ave [3, 10]: 0.05311
PR8 M2 gene expression qPCR, individual replicates [3, 11]: 0.03101 and 0.05567 and 0.03306 and 0.04539 and 0.07613 and 0.07839 and 0.08038 and 0.02111 and 0.02153
PR8 PB1 gene expression qPCR, individual replicates [3, 11]: 0.03148 and 0.02292 and 0.01741 and 0.02275 and 0.0784 and 0.07991 and 0.07514 and 0.02623 and 0.02132
PR8 PB2 gene expression qPCR, individual replicates [3, 11]: 0.03118 and 0.04821 and 0.03936 and 0.04228 and 0.08338 and 0.07806 and 0.1008 and 0.0302 and 0.02454
NP/b-actin ave ([4]; average of 3 experiments): 0.8053
NS1/b-actin ave ([4]; average of 3 experiments): 0.5049
NP mean (western blot signal intensity, ImageJ) [4, 12]: 94.385 and 99.104 and 119.4
NP/b-actin [4, 12]: 0.9145 and 0.7726 and 0.7289
NS1/b-actin [4, 12]: 0.4761 and 0.5377 and 0.5009
NS1 mean (western blot signal intensity, ImageJ) [4, 12]: 65.696 and 68.111 and 62.157
MDCK IFN-b mRNA, ave ([5]; virus +): 17.4654
MDCK IFN-b mRNA, individual replicates ([5]; virus +): 2.418 and 33.9435 and 15.7832 and 32.7435 and 6.882 and 51.6835 and 8.73 and 2.955 and 2.05
MDCK IFN-b mRNA, ave ([5]; virus -): 2.784
MDCK IFN-b mRNA, individual replicates ([5]; virus -): 0.8154 and 7.71 and 7.894 and 3.201 and 1.087 and 1.374 and 1.346 and 0.9591 and 0.6654
NQO1 Canis lupus mRNA, ave ([6]; virus + (PR8)): 1.2349
NQO1 Canis lupus mRNA, individual replicates ([6]; virus + (PR8)): 1.289 and 1.376 and 1.34 and 1.5629 and 0.8611 and 0.8923 and 0.9522 and 1.447 and 1.3929
NQO1 Canis lupus mRNA, ave ([6]; virus -): 1.178
NQO1 Canis lupus mRNA, individual replicates ([6]; virus -): 1.099 and 1.305 and 1.308 and 1.291 and 1.087 and 1.132 and 1.031 and 1.075 and 1.276
Nrf2 activation (reporter assay) in contrast to DMSO ([7]; 12.5 μM, 24 h, MDCK cells): did not induce Nrf2 activation
pNQO1-ARE-Luc NRF2 reporter assay, ave ([7]; 12.5uM, relative to DMSO trans+, ave of #1-3 exp): 1.2008
pNQO1-ARE-Luc NRF2 reporter assay, individual replicates ([7]; 12.5uM, relative to DMSO trans+, two values each of #1, #2, #3 exp, listed as Cyclobakuchiol D): 1.181 and 1.006 and 1.453 and 1.158 and 1.274 and 1.134
NP/DAPI (%) ave ([8]; A/PR/8/34, 3.13 uM): 8.962%
NP (NP-positive cell count) ([8]; A/PR/8/34, 3.13 uM, single well, listed as Cyclobaku. D): 26 and 38 and 24 and 36 and 32 and 28 and 35 and 30
NP/DAPI (%) ave ([8]; A/PR/8/34, 6.25 uM): 5.506%
NP/DAPI (%) ave ([8]; A/PR/8/34, 12.5 uM): 1.974%
NP/DAPI (%) ave ([8]; A/PR/8/34, 25 uM): 1.609%
IC50 ([8]; Influenza A virus, PR/8, MDCK, read-out: half maximal (50%) inhibitory concentration (IC50)): 8.8 ± 2.4 µM
NP/DAPI (%) ave ([9]; 3.13uM, ave of 9 values (3 exp)): 30.4806%
NP/DAPI (%) ave ([9]; 6.25uM, ave of 9 values (3 exp)): 29.9222%
NP/DAPI (%) ave ([9]; 12.5uM, ave of 9 values (3 exp)): 34.4723%
NP/DAPI (%) ave ([9]; 25uM, ave of 9 values (3 exp)): 38.5623%
NP/DAPI (%) ave ([9]; ave summary, 3.13%): 30.4806%
NP/DAPI (%) ave ([9]; ave summary, 6.25%): 29.9222%
NP/DAPI (%) ave ([9]; ave summary, 12.50%): 34.4723%
NP/DAPI (%) ave ([9]; ave summary, 25%): 38.5623%
